We go through seven compounds from ChEMBL document CHEMBL1201862, “PubChem BioAssay data set” (2004).

What all share (type): functional
In assay [1] the target is Vascular endothelial growth factor receptor 1 (Homo sapiens, UniProt P17948).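 Further: measured within a kinome-wide profiling panel, FLT1 as the panel member.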
The target in assay [2] is T1, Serine/threonine-protein kinase D3 (Homo sapiens, UniProt O94806).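 Further: determined within a kinase panel screen, with PRKCN as the panel member.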
T1 sequence (O94806 whole entry): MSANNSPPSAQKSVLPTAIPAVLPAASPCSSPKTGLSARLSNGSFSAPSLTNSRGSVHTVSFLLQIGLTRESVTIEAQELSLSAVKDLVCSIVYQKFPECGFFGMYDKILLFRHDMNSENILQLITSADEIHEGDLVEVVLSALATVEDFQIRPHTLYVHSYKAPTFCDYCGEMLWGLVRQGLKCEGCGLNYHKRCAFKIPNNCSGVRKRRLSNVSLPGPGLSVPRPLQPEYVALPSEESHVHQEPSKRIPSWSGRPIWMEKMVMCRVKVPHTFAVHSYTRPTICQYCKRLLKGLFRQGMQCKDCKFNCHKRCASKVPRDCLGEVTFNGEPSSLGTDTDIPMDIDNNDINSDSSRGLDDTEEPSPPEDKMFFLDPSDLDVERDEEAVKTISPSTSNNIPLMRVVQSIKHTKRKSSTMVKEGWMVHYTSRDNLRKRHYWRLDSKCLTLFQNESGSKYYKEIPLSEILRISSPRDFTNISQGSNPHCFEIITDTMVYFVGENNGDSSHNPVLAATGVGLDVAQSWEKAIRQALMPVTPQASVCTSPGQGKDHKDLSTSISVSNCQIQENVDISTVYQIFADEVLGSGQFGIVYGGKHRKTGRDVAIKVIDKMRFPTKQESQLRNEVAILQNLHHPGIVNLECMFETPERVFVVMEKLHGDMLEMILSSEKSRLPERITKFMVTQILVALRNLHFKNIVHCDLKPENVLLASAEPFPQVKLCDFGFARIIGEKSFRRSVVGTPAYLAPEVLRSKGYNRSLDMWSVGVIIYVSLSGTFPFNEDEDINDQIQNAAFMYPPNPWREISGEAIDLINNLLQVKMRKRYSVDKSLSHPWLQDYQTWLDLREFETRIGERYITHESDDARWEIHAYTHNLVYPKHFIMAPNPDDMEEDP

The target in assay [3] is Vascular endothelial growth factor receptor 2 (Homo sapiens, UniProt P35968).
The target of assay [4] is Tyrosine-protein kinase Blk (Homo sapiens, UniProt P51451).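 Further: obtained as one member of a kinome-wide kinase assay panel.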
In another assay the target is Ephrin type-A receptor 2 (Homo sapiens, UniProt P29317).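 Further: EPHA2 tested as one member of a kinome-wide kinase panel.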
The target in assay [5] is Megakaryocyte-associated tyrosine-protein kinase (Homo sapiens, UniProt P42679).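 Further: affinity measured as one member of a kinase panel (Navigating the Kinome) against MATK.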
Assay [6] has as its target Mitogen-activated protein kinase kinase kinase kinase 4 (Homo sapiens, UniProt O95819).
Assay [7] addresses T2, Serine/threonine-protein kinase Chk1 (Homo sapiens, UniProt O14757).
T2 sequence (O14757 whole entry): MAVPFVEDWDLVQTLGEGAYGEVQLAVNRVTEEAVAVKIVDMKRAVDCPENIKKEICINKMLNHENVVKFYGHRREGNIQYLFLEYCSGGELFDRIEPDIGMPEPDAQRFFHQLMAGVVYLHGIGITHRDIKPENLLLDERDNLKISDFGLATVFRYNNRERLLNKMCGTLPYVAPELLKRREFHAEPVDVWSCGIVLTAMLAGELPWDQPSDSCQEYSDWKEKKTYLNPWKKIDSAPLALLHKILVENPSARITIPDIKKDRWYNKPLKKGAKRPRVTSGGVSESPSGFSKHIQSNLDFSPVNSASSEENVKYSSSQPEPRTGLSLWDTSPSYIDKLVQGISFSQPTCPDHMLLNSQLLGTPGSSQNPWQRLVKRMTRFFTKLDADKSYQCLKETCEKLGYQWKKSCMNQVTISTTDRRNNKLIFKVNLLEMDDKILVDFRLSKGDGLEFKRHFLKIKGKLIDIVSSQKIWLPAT

Assay [8] addresses Receptor tyrosine-protein kinase erbB-4 (Homo sapiens, UniProt Q15303).
The target of assay [9] is STE20-like serine/threonine-protein kinase (Homo sapiens, UniProt Q9H2G2).
The target in assay [10] is Mitogen-activated protein kinase 12 (Homo sapiens, UniProt P53778).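 Further: measured as one member of a kinome-wide kinase profiling panel.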
Assay [11] concerns the target Tyrosine-protein kinase FRK (Homo sapiens, UniProt P42685).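 Further: FRK tested as one member of a kinome panel.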
Assay [12] concerns the target Mitogen-activated protein kinase kinase kinase 20 (Homo sapiens, UniProt Q9NYL2).
The target of assay [13] is BDNF/NT-3 growth factors receptor (Homo sapiens, UniProt Q16620).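 Further: NTRK2 measured as one member of a broad kinome-wide kinase profiling panel.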
The target of assay [14] is T3, Replicative DNA helicase DnaB (Mycobacterium tuberculosis, UniProt P9WMR3).
T3 sequence (P9WMR3 whole entry): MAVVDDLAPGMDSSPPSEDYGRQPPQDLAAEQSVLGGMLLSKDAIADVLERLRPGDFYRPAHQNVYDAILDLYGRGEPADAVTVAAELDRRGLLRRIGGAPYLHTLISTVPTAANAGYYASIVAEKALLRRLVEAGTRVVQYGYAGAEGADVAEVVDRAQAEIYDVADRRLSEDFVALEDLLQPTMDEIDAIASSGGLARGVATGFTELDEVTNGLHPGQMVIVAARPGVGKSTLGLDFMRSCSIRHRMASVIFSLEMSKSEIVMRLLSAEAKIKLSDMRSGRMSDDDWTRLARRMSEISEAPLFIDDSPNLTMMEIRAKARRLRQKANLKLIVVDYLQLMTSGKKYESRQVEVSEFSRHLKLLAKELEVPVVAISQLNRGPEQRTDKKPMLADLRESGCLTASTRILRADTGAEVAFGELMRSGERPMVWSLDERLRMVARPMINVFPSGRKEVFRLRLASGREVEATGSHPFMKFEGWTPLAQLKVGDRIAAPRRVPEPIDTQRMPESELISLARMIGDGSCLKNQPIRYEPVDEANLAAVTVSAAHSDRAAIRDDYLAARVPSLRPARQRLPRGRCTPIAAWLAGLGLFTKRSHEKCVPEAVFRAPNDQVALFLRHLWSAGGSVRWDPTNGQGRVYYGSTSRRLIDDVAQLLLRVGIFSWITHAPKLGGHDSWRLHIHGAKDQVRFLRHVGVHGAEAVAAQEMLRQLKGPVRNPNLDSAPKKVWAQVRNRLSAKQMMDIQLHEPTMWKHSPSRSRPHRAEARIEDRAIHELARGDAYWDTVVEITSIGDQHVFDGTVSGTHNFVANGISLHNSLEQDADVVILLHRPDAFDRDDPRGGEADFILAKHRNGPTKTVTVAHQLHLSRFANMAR
In words: DnaB intein splicing inhibitors, dose response, biochemical, cell-free fluorescence (AID 449749).

The source made the active and inactive calls. Bounds are passed on as bounds.

Vascular endothelial growth factor receptor 2, sequence (P35968 whole entry): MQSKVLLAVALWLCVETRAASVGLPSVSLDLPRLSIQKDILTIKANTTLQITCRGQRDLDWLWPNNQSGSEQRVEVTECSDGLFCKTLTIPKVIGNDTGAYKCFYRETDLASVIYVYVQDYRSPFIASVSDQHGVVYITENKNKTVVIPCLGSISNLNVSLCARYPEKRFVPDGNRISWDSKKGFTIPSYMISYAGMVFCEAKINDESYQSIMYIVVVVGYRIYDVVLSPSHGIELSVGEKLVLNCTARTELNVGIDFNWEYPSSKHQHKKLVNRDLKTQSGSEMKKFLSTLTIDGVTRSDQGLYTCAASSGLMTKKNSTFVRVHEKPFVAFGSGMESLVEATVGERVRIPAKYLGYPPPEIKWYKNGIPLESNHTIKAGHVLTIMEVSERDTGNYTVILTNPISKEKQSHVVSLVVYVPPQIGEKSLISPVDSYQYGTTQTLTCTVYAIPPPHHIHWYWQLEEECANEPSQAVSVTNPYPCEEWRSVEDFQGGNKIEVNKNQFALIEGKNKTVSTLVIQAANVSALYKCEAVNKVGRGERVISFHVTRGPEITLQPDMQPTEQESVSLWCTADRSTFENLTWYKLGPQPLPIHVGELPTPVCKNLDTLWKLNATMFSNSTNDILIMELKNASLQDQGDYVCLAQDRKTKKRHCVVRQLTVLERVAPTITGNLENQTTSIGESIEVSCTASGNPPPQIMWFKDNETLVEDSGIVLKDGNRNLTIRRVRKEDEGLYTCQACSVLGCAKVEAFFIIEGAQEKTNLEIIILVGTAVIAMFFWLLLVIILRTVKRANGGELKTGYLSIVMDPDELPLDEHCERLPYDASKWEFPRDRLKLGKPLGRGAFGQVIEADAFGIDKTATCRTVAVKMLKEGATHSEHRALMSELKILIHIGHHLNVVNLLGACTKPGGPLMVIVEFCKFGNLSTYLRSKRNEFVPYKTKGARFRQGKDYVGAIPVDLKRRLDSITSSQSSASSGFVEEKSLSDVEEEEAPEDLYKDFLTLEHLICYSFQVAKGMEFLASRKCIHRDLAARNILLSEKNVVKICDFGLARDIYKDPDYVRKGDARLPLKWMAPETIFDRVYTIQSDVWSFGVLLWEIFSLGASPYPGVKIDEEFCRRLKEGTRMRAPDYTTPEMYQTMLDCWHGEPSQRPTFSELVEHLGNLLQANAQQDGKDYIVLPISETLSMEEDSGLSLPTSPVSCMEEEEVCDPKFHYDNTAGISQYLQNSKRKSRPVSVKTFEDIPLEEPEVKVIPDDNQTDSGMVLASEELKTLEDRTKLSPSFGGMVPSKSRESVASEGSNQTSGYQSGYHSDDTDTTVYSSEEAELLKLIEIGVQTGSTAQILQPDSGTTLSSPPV
Mitogen-activated protein kinase 12, sequence (P53778 whole entry): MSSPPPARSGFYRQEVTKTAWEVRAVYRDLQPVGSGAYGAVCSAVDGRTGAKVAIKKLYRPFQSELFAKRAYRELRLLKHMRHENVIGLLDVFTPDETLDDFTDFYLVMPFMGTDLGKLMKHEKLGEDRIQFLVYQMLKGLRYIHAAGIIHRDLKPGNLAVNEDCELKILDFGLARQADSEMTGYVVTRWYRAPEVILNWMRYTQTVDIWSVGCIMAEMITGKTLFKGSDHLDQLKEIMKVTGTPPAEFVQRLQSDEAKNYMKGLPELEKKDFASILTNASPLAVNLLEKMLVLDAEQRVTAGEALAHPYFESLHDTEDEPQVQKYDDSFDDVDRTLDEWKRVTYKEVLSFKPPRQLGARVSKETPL
Tyrosine-protein kinase FRK, sequence (P42685 whole entry): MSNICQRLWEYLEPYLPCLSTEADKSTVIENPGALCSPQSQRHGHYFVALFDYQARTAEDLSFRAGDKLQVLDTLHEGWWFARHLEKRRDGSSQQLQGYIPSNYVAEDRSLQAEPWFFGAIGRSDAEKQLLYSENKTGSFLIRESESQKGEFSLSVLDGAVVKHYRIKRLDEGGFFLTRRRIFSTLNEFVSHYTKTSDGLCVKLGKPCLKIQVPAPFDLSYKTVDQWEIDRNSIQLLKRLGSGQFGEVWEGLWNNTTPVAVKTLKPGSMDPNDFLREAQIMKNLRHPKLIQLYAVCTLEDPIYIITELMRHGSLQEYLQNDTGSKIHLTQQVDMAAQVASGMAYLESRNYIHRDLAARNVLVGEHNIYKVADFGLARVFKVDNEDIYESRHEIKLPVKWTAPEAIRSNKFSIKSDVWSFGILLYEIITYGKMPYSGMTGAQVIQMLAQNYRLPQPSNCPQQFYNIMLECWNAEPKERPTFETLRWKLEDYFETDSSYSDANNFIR
Tyrosine-protein kinase Blk, sequence (P51451 whole entry): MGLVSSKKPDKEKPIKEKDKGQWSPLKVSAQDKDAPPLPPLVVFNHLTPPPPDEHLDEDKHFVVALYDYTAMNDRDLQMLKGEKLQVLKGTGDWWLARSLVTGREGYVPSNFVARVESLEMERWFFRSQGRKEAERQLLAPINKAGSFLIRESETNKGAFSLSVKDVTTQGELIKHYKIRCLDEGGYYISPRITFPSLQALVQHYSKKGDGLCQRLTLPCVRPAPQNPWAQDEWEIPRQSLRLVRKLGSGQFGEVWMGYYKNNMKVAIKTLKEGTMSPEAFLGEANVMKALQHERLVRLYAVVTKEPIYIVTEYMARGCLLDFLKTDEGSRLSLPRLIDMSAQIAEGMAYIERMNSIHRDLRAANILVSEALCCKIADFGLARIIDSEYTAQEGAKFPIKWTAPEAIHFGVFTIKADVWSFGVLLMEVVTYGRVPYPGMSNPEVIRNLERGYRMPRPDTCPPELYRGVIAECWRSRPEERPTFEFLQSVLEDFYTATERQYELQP
Vascular endothelial growth factor receptor 1, sequence (P17948 whole entry): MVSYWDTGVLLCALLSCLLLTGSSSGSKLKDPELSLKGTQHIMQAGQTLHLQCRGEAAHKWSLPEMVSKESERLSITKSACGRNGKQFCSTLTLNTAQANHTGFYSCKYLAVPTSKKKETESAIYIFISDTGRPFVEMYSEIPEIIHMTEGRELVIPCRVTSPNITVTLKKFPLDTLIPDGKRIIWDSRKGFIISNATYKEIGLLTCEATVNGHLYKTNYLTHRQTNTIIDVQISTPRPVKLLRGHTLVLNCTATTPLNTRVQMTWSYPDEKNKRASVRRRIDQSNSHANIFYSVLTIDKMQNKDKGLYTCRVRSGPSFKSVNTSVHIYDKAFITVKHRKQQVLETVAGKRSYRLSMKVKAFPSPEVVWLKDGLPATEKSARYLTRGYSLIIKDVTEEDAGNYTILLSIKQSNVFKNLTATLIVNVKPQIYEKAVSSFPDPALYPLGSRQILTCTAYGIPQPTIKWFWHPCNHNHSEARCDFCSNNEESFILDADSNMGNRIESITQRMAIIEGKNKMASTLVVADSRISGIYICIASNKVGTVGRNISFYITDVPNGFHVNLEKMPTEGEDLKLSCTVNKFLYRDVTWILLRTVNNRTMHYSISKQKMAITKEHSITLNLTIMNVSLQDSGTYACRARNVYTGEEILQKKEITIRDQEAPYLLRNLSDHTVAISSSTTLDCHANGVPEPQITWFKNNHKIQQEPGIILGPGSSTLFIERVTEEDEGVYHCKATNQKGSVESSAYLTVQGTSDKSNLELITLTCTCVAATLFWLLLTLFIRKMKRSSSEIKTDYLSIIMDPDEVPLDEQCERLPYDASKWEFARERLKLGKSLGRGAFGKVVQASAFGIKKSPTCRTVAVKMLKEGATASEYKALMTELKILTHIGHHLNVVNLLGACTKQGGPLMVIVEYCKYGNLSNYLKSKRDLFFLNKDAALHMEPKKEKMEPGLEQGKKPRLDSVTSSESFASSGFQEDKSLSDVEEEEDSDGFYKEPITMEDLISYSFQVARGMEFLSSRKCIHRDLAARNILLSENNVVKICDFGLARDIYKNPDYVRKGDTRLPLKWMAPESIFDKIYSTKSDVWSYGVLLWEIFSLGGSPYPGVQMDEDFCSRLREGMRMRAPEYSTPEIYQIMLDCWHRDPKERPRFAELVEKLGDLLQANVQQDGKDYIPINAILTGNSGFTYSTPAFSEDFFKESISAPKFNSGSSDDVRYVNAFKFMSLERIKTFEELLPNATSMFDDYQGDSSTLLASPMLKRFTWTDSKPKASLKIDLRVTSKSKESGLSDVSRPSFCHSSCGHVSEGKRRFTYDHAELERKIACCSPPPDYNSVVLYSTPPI
Megakaryocyte-associated tyrosine-protein kinase, sequence (P42679 whole entry): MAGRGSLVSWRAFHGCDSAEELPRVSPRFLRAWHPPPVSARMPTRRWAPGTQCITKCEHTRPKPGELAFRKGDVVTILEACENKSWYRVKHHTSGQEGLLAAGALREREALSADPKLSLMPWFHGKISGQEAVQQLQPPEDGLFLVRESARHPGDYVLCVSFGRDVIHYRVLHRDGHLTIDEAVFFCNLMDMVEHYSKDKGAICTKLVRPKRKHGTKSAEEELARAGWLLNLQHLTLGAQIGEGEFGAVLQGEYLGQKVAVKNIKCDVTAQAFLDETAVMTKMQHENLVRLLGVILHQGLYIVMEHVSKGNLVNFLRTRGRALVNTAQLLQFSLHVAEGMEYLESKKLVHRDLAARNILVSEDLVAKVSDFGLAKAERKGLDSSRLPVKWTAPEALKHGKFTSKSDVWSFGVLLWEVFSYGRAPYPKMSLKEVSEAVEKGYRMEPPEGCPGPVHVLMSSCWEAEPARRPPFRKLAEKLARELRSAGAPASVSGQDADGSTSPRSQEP

For the compound `COc1cc2c(cc1F)C(c1ccccc1Cl)=Nc1c(n[nH]c1C)N2` [RG-1530], the Ki – broadly, the dissociation constant of the complex between target and ligand, obtained from inhibition or displacement – was 0.0501 µM (active) in assay [1]; > 3.98 µM (inactive) in [2]; 0.0126 µM (active) in assay [3]; 0.0631 µM (active) in assay [4]; 0.0501 µM (active) on Ephrin type-A receptor 2; > 2 µM (inactive) in assay [5]. In addition, the Ki in assay [6] is > 3.98 µM (inactive); in [7], 0.501 µM (active); in assay [8], 2 µM (active); in assay [9], 0.0398 µM (active); in [10] it was > 6.31 µM (inactive); in assay [11], 0.0794 µM (active). Moreover, the Ki in assay [12] is > 7.94 µM (inactive); in assay [13], 0.1 µM (active).
For `O=C(O)c1ccc(NC2=C(Cl)C(=O)c3ccccc3C2=O)cc1`, the AC50 (commonly the midpoint of the concentration-response curve, whichever way the signal moves) in [14] is 3.36 µM (active).
For the compound `O=C(O)c1ccc2c3c(ncnc13)-c1ccccc1C2=O`, the AC50 in assay [14] was 4.07 µM (active).
Turning to `Cc1nn(C)c2sc3c(=O)[nH]cnc3c12`, the results for the inhibition constant Ki in [2], in assay [3] and in [7] were 39.8 µM (active), > 79.4 µM (inactive) and > 79.4 µM (inactive), respectively.
For `Cc1ccc2nccc(NC(=O)Nc3cccc(C(F)(F)F)n3)c2c1`, the Ki in [1] is > 2 µM (inactive); in assay [2], 1.26 µM (active); in [3], > 2 µM (inactive); in assay [4] it was > 1.58 µM (inactive); on Ephrin type-A receptor 2, > 3.16 µM (inactive); in assay [5], > 2 µM (inactive). For the same compound, the Ki in assay [6] is > 2.51 µM (inactive); in assay [7] it was > 7.94 µM (inactive); in assay [8] it was > 3.98 µM (inactive); in [9], > 10 µM (inactive); in [10], > 6.31 µM (inactive); in assay [11], 0.1 µM (active). Moreover, the Ki in assay [12] is > 7.94 µM (inactive); in assay [13], > 5.01 µM (inactive).
On to `COC(=O)CCS(=O)(=O)c1nc(-c2ccccc2)cc(C(F)(F)F)n1`, for which the AC50 in assay [14] was 3.44 µM (active).
`Cc1c(/N=C2\C=CC(=O)c3ccccc32)c(=O)n(-c2ccccc2)n1C`: the AC50 in [14] is 1.63 µM (active).
